Experimental data: patent US4122034A, “Antimicrobial compositions” (Schering Corporation, priority 1975, dated 1978)

What was measured:
Enterococcus = experiment: In vitro antibacterial activity, dilution in Mueller Hinton Agar (Table I); assay type: cell-based
Method: (§1) All the tests were carried out and (when necessary) scored under standard conditions. "MIC" means "minimum inhibitory concentration."
(§2) In vitro Antibacterial Activity of 2-aminoalkyl-3-phenyl-
(§3) indoles of the formula I. Dilution in Mueller Hinton Agar pH 7.4

Proteus mirabilis = experiment: as above; assay type: cell-based; conditions: Mueller Hinton Agar pH 7.4
Method: as §1, §2, §3

Proteus morganii = experiment: as above; assay type: cell-based; conditions: Morganella morganii; strain Valz; Mueller Hinton Agar pH 7.4
Method: as §1, §2, §3

Proteus vulgaris = experiment: as above; assay type: cell-based; conditions: strain Napol, Mueller Hinton Agar pH 7.4
Method: as §1, §2, §3

Salmonella = experiment: as above; assay type: cell-based
Method: as §1, §2, §3

Staphylococcus aureus = experiment: as above; assay type: cell-based; conditions: Mueller Hinton Agar pH 7.4
Method: as §1, §2, §3

Streptococcus pyogenes = experiment: as above; assay type: cell-based
Method: as §1, §2, §3

Bacteroides corrodens = experiment: In vitro activity against anaerobes in fluid Thioglycollate medium (Table II); assay type: cell-based; conditions: Eikenella corrodens
Method: as §1
(§4) In vitro activity of 2-aminoalkyl-3-phenylindoles of the formula I
(§5) against anaerobes in fluid Thioglycollate medium

Bacteroides fragilis = experiment: as above; assay type: cell-based
Method: as §1, §4, §5

[1] = test system: Bacteroides melaninogenicus; experiment: as above; assay type: cell-based
Method: as §1, §4, §5

Clostridium histolyticum = experiment: as above; assay type: cell-based; conditions: Hathewaya histolytica
Method: as §1, §4, §5

Clostridium novyi = experiment: as above; assay type: cell-based
Method: as §1, §4, §5

Clostridium septicum = experiment: as above; assay type: cell-based
Method: as §1, §4, §5

Eubacterium lentum = experiment: as above; assay type: cell-based; conditions: Eggerthella lenta
Method: as §1, §4, §5

Peptostreptococcus = experiment: as above; assay type: cell-based
Method: as §1, §4, §5

Aspergillus niger 6275 = experiment: In vitro antifungal activity, dilutions in Sabouraud's Dextrose Broth (Table IV); assay type: cell-based; conditions: after 96 hours
Method: as §1
(§6) In vitro Antifungal Activity of 2-amioalkyl-3-phenylindoles
(§7) of the formula I against Dermetophytes and Aspergillus.
(§8) Dilutions in Sabouraud's Dextrose Broth.

Aspergillus sp. No. 3 = experiment: as above; assay type: cell-based; conditions: after 96 hours
Method: as §1, §6, §7, §8

Epidermophyton floccosum = experiment: as above; assay type: cell-based; conditions: after 96 hours
Method: as §1, §6, §7, §8

Microsporum distortum = experiment: as above; assay type: cell-based; conditions: after 96 hours
Method: as §1, §6, §7, §8

Microsporum nanum = experiment: as above; assay type: cell-based; conditions: Nannizzia nana; after 96 hours
Method: as §1, §6, §7, §8

Trichophyton ascoides = experiment: as above; assay type: cell-based; conditions: after 96 hours
Method: as §1, §6, §7, §8

Trichophyton discoides = experiment: as above; assay type: cell-based; conditions: after 96 hours
Method: as §1, §6, §7, §8

Trichophyton ferrugineum = experiment: as above; assay type: cell-based; conditions: Microsporum ferrugineum; after 96 hours
Method: as §1, §6, §7, §8

Trichophyton gallinae = experiment: as above; assay type: cell-based; conditions: after 96 hours
Method: as §1, §6, §7, §8

Trichophyton megninii = experiment: as above; assay type: cell-based; conditions: Trichophyton rubrum; after 96 hours
Method: as §1, §6, §7, §8

[2] = test system: Trichophyton mentagrophytes; experiment: as above; assay type: cell-based; conditions: 96 h
Method: as §1, §6, §7, §8

Trichophyton rubrum = experiment: as above; assay type: cell-based; conditions: 96 h
Method: as §1, §6, §7, §8

[3] = test system: Trichophyton schoenleinii; experiment: as above; assay type: cell-based; conditions: 96 h
Method: as §1, §6, §7, §8

Trichophyton soudenense = experiment: as above; assay type: cell-based; conditions: after 96 hours
Method: as §1, §6, §7, §8

Trichophyton tonsurans = experiment: as above; assay type: cell-based; conditions: after 96 hours
Method: as §1, §6, §7, §8

Tricoderm sp. = experiment: as above; assay type: cell-based; conditions: after 96 hours
Method: as §1, §6, §7, §8

[4] = Acute toxicity in mice (Table V); conditions: mouse, in vivo
Method: as §1
Acute Toxicity of 2-aminoalkyl-3-phenylindoles of the formula I

T. mentagrophytes = experiment: Effect against topical T. mentagrophytes infections in guinea pigs (Table VI); assay type: in vivo; parameters: Average Sum of lesion scores, Days 1-5 / Average Sum of lesion scores, Days 1-10: scale not given here; conditions: for Average Sum of lesion scores, Days 1-5: untreated controls 14.8; for Average Sum of lesion scores, Days 1-10: untreated controls 38.2
Method: as §1
Effect of some 2-aminoalkyl-3-phenylindoles of the formula II
against topical T. mentagrophytes infections in guinea pigs.

Trychomonas vaginalis = experiment: In vitro Anti-Trichomonal activity (Table VII); assay type: cell-based
Method: as §1
In vitro Anti-Trichomonal Activity of some 2-aminoalkyl-3-
phenyl-indenes of formula II.

NCc1[nH]c2ccc(Cl)cc2c1-c1ccccc1F [A, 2-Aminomethyl-5-chloro-3-(2-fluorophenyl)indole]
16.0: Average Sum of lesion scores, Days 1-10 (T. mentagrophytes; concentration 1%)
6.0 days: Average No. of Days to become negative, Cultures (T. mentagrophytes; concentration 4%)
24 µg/mL: IC50 (Trychomonas vaginalis; 50% suppression, read-out: Minimal Level to Produce 50% Suppression)
9.0 days: Average No. of Days to become negative, Lesion (T. mentagrophytes; concentration 1%)
6.8 days: Average No. of Days to become negative, Cultures (T. mentagrophytes; concentration 1%)
8.8 days: Average No. of Days to become negative, Lesion (T. mentagrophytes; concentration 4%)
850 mg/kg: LD50 ([4]; sc, S.C.)
11.8: Average Sum of lesion scores, Days 1-5 (T. mentagrophytes; concentration 1%)
3 µg/mL: MIC (Salmonella; pH 7.4, C2 Napc, Mueller Hinton Agar pH 7.4) | MIC (Staphylococcus aureus; pH 7.4, strain 59N) | MIC (Staphylococcus aureus; pH 7.4, strain Wood) | MIC (Staphylococcus aureus; pH 7.4, strain Zeigler) | MIC (Streptococcus pyogenes; pH 7.4, strain Cruz, Mueller Hinton Agar pH 7.4) | MIC (Peptostreptococcus; 48 hrs) | MIC (Peptostreptococcus; 72 hrs) | MIC (Epidermophyton floccosum) | MIC (Microsporum distortum) | MIC (Microsporum nanum) | MIC (Trichophyton megninii) | MIC ([3]; strain 2, after 96 hours)
17.5 µg/mL: MIC (Proteus mirabilis; pH 7.4, strain Hard) | MIC (Proteus morganii) | MIC (Proteus vulgaris) | MIC (Eubacterium lentum; 48 hrs) | MIC (Eubacterium lentum; 72 hrs) | MIC (Aspergillus niger 6275) | MIC (Aspergillus sp. No. 3) | MIC (Trichophyton ascoides) | MIC ([3]; strain not given, after 96 hours) | MIC (Trichophyton soudenense) | MIC (Trichophyton tonsurans)
7.5 µg/mL: MIC (Enterococcus; pH 7.4, strain 373, Mueller Hinton Agar pH 7.4) | MIC (Enterococcus; pH 7.4, strain 0928/72, Mueller Hinton Agar pH 7.4) | MIC (Proteus mirabilis; pH 7.4, strain Peras) | MIC (Salmonella; TYPHI, pH 7.4, B typhi, Mueller Hinton Agar pH 7.4) | MIC (Salmonella; pH 7.4, C1 Oao, Mueller Hinton Agar pH 7.4) | MIC (Salmonella; pH 7.4, C2 Cuban, Mueller Hinton Agar pH 7.4) | MIC (Salmonella; pH 7.4, Salmonella ent. 1, Mueller Hinton Agar pH 7.4) | MIC (Staphylococcus aureus; 209P, pH 7.4, strain 209P) | MIC (Staphylococcus aureus; pH 7.4, strain Gray) | MIC (Streptococcus pyogenes; pH 7.4, strain 27, Mueller Hinton Agar pH 7.4) | MIC (Streptococcus pyogenes; pH 7.4, strain C, Mueller Hinton Agar pH 7.4) | MIC (Bacteroides corrodens; 48 hrs) | MIC (Bacteroides corrodens; 72 hrs) | MIC (Bacteroides fragilis; 48 hrs) | MIC (Bacteroides fragilis; 72 hrs) | MIC ([1]; 48 hrs) | MIC ([1]; 72 hrs) | MIC (Clostridium histolyticum; 48 hrs) | MIC (Clostridium histolyticum; 72 hrs) | MIC (Clostridium novyi; 48 hrs) | MIC (Clostridium novyi; 72 hrs) | MIC (Clostridium septicum; 48 hrs) | MIC (Clostridium septicum; 72 hrs) | MIC (Trichophyton discoides) | MIC (Trichophyton ferrugineum) | MIC (Trichophyton gallinae) | MIC ([2]; strain A, after 96 hours) | MIC ([2]; strain B, after 96 hours) | MIC ([2]; strain C, after 96 hours) | MIC ([2]; strain H377, after 96 hours) | MIC ([2]; strain Young, after 96 hours) | MIC (Trichophyton rubrum; strain 3, after 96 hours) | MIC (Trichophyton rubrum; strain 360, after 96 hours) | MIC (Trichophyton rubrum; strain Blehl, after 96 hours) | MIC (Trichophyton rubrum; strain Haggerty, after 96 hours) | MIC (Tricoderm sp.)
250 mg/kg: LD50 ([4]; ip, I.P.)
40 µg/mL: IC90 (Trychomonas vaginalis; 90% suppression, read-out: Minimal Level to Produce 90% Suppression)
14.8: Average Sum of lesion scores, Days 1-10 (T. mentagrophytes; concentration 4%)
> 1000 mg/kg: LD50 ([4]; Oral)
11.2: Average Sum of lesion scores, Days 1-5 (T. mentagrophytes; concentration 4%)
